Source: patent US9650340B2, “5-fluoro-N-(pyridin-2-yl)pyridin-2-amine derivatives containing a sulfoximine group” (BAYER PHARMA AKTIENGESELLSCHAFT, priority 2012, dated 2017)
Structures can show the parent of a compound that is named as a salt.

Experiments:
CDK2/CycE = target: T1, CDK2/CycE (Homo sapiens, UniProt P24941); assay: CDK2/CycE kinase assay (TR-FRET, 10 μM ATP); format: biochemical; settings: Method 2 (2a)
T1 construct: GST; purchased ProQinase GmbH (Freiburg, Germany); host or cells: insect cells (Sf9)
Excerpt: 2a. CDK2/CycE Kinase Assay:
CDK2/CycE-inhibitory activity of compounds of the present invention was quantified employing the CDK2/CycE TR-FRET assay as described in the following paragraphs:
Recombinant fusion proteins of GST and human CDK2 and of GST and human CycE, expressed in insect cells (Sf9) and purified by Glutathion-Sepharose affinity chromatography, were purchased from ProQinase GmbH (Freiburg, Germany). As substrate for the kinase reaction biotinylated peptide biotin-Ttds-[…] (C-terminus in amid form) was used which can be purchased e.g. form the company JERINI Peptide Technologies (Berlin, Germany).
For the assay 50 nl of a 100 fold concentrated solution of the test compound in DMSO was pipetted into a black low volume 384 well microtiter plate (Greiner Bio-One, Frickenhausen, Germany), 2 μl of a solution of CDK2/CycE in aqueous assay buffer [50 mM Tris/HCl pH 8.0, 10 mM MgCl2, 1.0 mM dithiothreitol, 0.1 mM sodium ortho-vanadate, 0.01% (v/v) Nonidet-P40 (Sigma)] were added and the mixture was incubated for 15 min at 22° C. to allow pre-binding of the test compounds to the enzyme before the start of the kinase reaction. Then the kinase reaction was started by the addition of 3 μl of a solution of adenosine-tri-phosphate (ATP, 16.7 μM=>final conc. in the 5 μl assay volume is 10 μM) and substrate (1.25 μM=>final conc. in the 5 μl assay volume is 0.75 μM) in assay buffer and the resulting mixture was incubated for a reaction time of 25 min at 22° C. The concentration of CDK2/CycE was adjusted depending of the activity of the enzyme lot and was chosen appropriate to have the assay in the linear range, typical concentrations were in the range of 130 ng/mL The reaction was stopped by the addition of 5 μl of a solution of TR-FRET detection reagents (0.2 μM streptavidine-XL665 [Cisbio Bioassays, Codolet, France] and 1 nM anti-RB(pSer807/pSer811)-antibody from BD Pharmingen [#558389] and 1.2 nM LANCE EU-W1024 labeled anti-mouse IgG antibody [Perkin-Elmer, product no. AD0077]) in an aqueous EDTA-solution (100 mM EDTA, 0.2% (w/v) bovine serum albumin in 100 mM HEPES/NaOH pH 7.0).
(§1) The resulting mixture was incubated 1 h at 22° C. to allow the formation of complex between the phosphorylated biotinylated peptide and the detection reagents. Subsequently the amount of phosphorylated substrate was evaluated by measurement of the resonance energy transfer from the Eu-chelate to the streptavidine-XL. Therefore, the fluorescence emissions at 620 nm and 665 nm after excitation at 350 nm was measured in a TR-FRET reader, e.g. a Rubystar (BMG Labtechnologies, Offenburg, Germany) or a Viewlux (Perkin-Elmer). The ratio of the emissions at 665 nm and at 622 nm was taken as the measure for the amount of phosphorylated substrate.

CDK9/CycT1 = target: T2, CDK9/CycT1 (Homo sapiens, UniProt P50750); assay: CDK9/CycT1 high ATP kinase assay (TR-FRET, 2 mM ATP); format: biochemical; settings: Method 1b
T2 construct: Recombinant full-length His-tagged human CDK9 and CycT1; His; purchased Invitrogen PV4131; host or cells: insect cells
Method: 1b. CDK9/CyeT1 High ATP Kinase Assay
CDK9/CycT1-inhibitory activity of compounds of the present invention at a high ATP concentration after preincubation of enzyme and test compounds was quantified employing the CDK9/CycT1 TR-FRET assay as described in the following paragraphs.
Recombinant full-length His-tagged human CDK9 and CycT1, expressed in insect cells and purified by Ni-NTA affinity chromatography, were purchase from Invitrogen (Cat. No PV4131). As substrate for the kinase reaction biotinylated peptide biotin-Ttds-[…] (C-terminus in amid form) was used which can be purchased e.g. form the company JERINI peptide technologies (Berlin, Germany). For the assay 50 nl of a 100 fold concentrated solution of the test compound in DMSO was pipetted into a black low volume 384 well microtiter plate (Greiner Bio-One, Frickenhausen, Germany), 2 μl of a solution of CDK9/CycT1 in aqueous assay buffer [50 mM Tris/HCl pH 8.0, 10 mM MgCl2, 1.0 mM dithiothreitol, 0.1 mM sodium ortho-vanadate, 0.01% (v/v) Nonidet-P40 (Sigma)] were added and the mixture was incubated for 15 min at 22° C. to allow pre-binding of the test compounds to the enzyme before the start of the kinase reaction. Then the kinase reaction was started by the addition of 3 μl of a solution of adenosine-tri-phosphate (ATP, 3.3 mM=>final conc. in the 5 μl assay volume is 2 mM) and substrate (1.67 μM=>final conc. in the 5 μl assay volume is 1 μM) in assay buffer and the resulting mixture was incubated for a reaction time of 25 min at 22° C.
as §1, with “HTRF” for “TR-FRET”

T2 sequence (P50750 whole entry): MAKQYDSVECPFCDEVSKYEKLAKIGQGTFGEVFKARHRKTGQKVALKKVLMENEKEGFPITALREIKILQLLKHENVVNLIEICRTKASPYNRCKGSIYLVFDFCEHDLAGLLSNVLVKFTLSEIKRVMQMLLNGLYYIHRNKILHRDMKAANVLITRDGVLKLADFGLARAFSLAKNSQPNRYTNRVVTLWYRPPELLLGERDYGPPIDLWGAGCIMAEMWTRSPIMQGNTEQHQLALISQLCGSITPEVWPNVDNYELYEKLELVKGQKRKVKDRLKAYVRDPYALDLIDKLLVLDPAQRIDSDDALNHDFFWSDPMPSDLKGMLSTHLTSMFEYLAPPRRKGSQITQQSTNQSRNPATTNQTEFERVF
T2 sequence (O60563 whole entry partner): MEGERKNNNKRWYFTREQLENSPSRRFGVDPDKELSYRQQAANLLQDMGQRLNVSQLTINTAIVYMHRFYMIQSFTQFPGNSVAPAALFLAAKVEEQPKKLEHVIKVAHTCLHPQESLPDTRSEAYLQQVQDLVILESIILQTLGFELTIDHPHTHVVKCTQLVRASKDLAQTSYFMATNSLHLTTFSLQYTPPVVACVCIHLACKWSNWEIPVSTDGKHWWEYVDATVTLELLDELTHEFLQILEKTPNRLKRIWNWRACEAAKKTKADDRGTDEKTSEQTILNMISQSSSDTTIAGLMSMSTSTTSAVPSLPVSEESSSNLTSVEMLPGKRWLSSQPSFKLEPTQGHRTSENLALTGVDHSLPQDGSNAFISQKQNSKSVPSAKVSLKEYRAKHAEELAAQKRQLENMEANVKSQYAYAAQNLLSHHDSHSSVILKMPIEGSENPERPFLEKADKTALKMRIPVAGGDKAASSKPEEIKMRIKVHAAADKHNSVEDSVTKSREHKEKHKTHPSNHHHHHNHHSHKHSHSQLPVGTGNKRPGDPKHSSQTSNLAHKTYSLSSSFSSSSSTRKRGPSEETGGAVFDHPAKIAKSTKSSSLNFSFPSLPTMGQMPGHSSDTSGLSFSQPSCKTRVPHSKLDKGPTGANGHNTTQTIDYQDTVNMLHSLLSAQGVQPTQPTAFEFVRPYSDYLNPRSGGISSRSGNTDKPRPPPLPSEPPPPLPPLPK

With `COc1cc(F)ccc1-c1cc(Nc2cc(CS(C)(=N)=O)ccn2)ncc1F` (racemic) [Example 1, (rac)-5-Fluoro-4-(4-fluoro-2-methoxyphenyl)-N-{4-[(S-methylsulfonimidoyl)methyl]pyridin-2-yl}pyridin-2-amine] the IC50 (CDK2/CycE) was 410 nM.
With `COc1cc(F)ccc1-c1cc(Nc2cc(CS(C)(=N)=O)cc(C)n2)ncc1F` (racemic) [Example 4, (rac)-5-Fluoro-4-(4-fluoro-2-methoxyphenyl)-N-{6-methyl-4-[(S-methylsulfonimidoyl)methyl]pyridin-2-yl}pyridin-2-amine] the IC50 (CDK2/CycE) was 120 nM and the IC50 (CDK9/CycT1) was 2 nM.
Work on `COc1cc(F)ccc1-c1cc(Nc2cc(CS(C)(=N)=O)c(Br)c(C)n2)ncc1F` (racemic) [Example 5, (rac)-5-Bromo-N-[5-fluoro-4-(4-fluoro-2-methoxyphenyl)pyridin-2-yl]-6-methyl-4-[(S-methylsulfonimidoyl)methyl]pyridin-2-amine] yielded an IC50 (CDK2/CycE) of 140 nM and an IC50 (CDK9/CycT1) of 3 nM.
`COc1cc(CS(C)(=N)=O)cc(Nc2cc(-c3ccc(F)cc3OC)c(F)cn2)n1` (racemic) [Example 6, (rac)-5-Fluoro-4-(4-fluoro-2-methoxyphenyl)-N-{6-methoxy-4-[(S-methylsulfonimidoyl)methyl]pyridin-2-yl}pyridin-2-amine] was tested, and the IC50 (CDK2/CycE) was 4 nM and the IC50 (CDK9/CycT1) was 1 nM.
`COc1cc(F)ccc1-c1cc(Nc2cc(CS(C)(=N)=O)cc(Cl)n2)ncc1F` (racemic) [Example 7, (rac)-N-{6-Chloro-4-[(S-methylsulfonimidoyl)methyl]pyridin-2-yl}-5-fluoro-4-(4-fluoro-2-methoxyphenyl)pyridin-2-amine] showed an IC50 (CDK2/CycE) of 44 nM and an IC50 (CDK9/CycT1) of 2 nM.
`COc1cc(F)ccc1-c1cc(Nc2cc(CS(=N)(=O)CCO)ccn2)ncc1F` (racemic) [Example 8, (rac)-2-{S-[(2-{[5-Fluoro-4-(4-fluoro-2-methoxyphenyl)pyridin-2-yl]amino}pyridin-4-yl)methyl]sulfonimidoyl}ethanol] was tested, and the IC50 (CDK2/CycE) was 430 nM and the IC50 (CDK9/CycT1) was 14 nM.
Compound `COc1cc(F)ccc1-c1cc(Nc2cc(CS(=N)(=O)CCN)ccn2)ncc1F` (racemic) [Example 9, (rac)-N-(4-{[S-(2-Aminoethyl)sulfonimidoyl]methyl}pyridin-2-yl)-5-fluoro-4-(4-fluoro-2-methoxyphenyl)pyridin-2-amine] has an IC50 (CDK2/CycE) of 240 nM and an IC50 (CDK9/CycT1) of 6 nM.
Compound `CCOC(=O)N=S(C)(=O)Cc1ccnc(Nc2cc(-c3ccc(F)cc3OC)c(F)cn2)c1` (racemic) [Example 11, (rac)-Ethyl{[(2-{[5-fluoro-4-(4-fluoro-2-methoxyphenyl)pyridin-2-yl]amino}pyridin-4-yl)methyl](methyl)oxido-λ^6-sulfanylidene}carbamate] has an IC50 (CDK2/CycE) of 170 nM and an IC50 (CDK9/CycT1) of 1 nM.
`CCNC(=O)N=S(C)(=O)Cc1ccnc(Nc2cc(-c3ccc(F)cc3OC)c(F)cn2)c1` (racemic) [Example 12, (rac)-1-Ethyl-3-{[(2-{[5-fluoro-4-(4-fluoro-2-methoxyphenyl)pyridin-2-yl]amino}pyridin-4-yl)methyl](methyl)oxido-λ^6-sulfanylidene}urea] showed an IC50 (CDK2/CycE) of 140 nM and an IC50 (CDK9/CycT1) of 2 nM.
In the case of `COc1cc(F)ccc1-c1cc(Nc2cc(CS(C)(=O)=NC(C)=O)ccn2)ncc1F` (racemic) [Example 13, (rac)-N-{[(2-{[5-Fluoro-4-(4-fluoro-2-methoxyphenyl)pyridin-2-yl]amino}pyridin-4-yl)methyl](methyl)oxido-λ^6-sulfanylidene}acetamide], the IC50 (CDK2/CycE) is reported as 130 nM and the IC50 (CDK9/CycT1) is reported as 1 nM.
In the case of `CCOC(=O)N=S(C)(=O)Cc1cc(Nc2cc(-c3ccc(F)cc3OC)c(F)cn2)nc(OC)c1` (racemic) [Example 15, (rac)-ethyl{[(2-{[5-fluoro-4-(4-fluoro-2-methoxyphenyl)pyridin-2-yl]amino}-6-methoxypyridin-4-yl)methyl](methyl)oxido-λ^6-sulfanylidene}carbamate], the IC50 (CDK2/CycE) is reported as 10 nM and the IC50 (CDK9/CycT1) is reported as 1 nM.
Work on `COc1cc(F)ccc1-c1cc(Nc2cc(CS(C)(=N)=O)cc(F)n2)ncc1F` (racemic) [Example 17, (rac)-5-Fluoro-4-(4-fluoro-2-methoxyphenyl)-N-{6-fluoro-4-[(S-methylsulfonimidoyl)methyl]pyridin-2-yl}pyridin-2-amine] yielded an IC50 (CDK2/CycE) of 49 nM and an IC50 (CDK9/CycT1) of 1.8 nM.
In the case of `COc1cc(F)ccc1-c1cc(Nc2cc(CS(C)(=O)=NC(=O)C(F)(F)F)cc(F)n2)ncc1F` (racemic) [Example 18, (rac)-2,2,2-Trifluoro-N-{[(2-fluoro-6-{[5-fluoro-4-(4-fluoro-2-methoxyphenyl)pyridin-2-yl]amino}pyridin-4-yl)methyl](methyl)oxido-λ^6-sulfanylidene}acetamide], the IC50 (CDK2/CycE) is reported as 39 nM and the IC50 (CDK9/CycT1) is reported as 4 nM.
`COc1cc(F)ccc1-c1cc(Nc2cc(CS(C)(=N)=O)cc(C(F)(F)F)n2)ncc1F` (racemic) [Example 21, (rac)-5-Fluoro-4-(4-fluoro-2-methoxyphenyl)-N-{4-[(S-methylsulfonimidoyl)methyl]-6-(trifluoromethyl)pyridin-2-yl}pyridin-2-amine] showed an IC50 (CDK2/CycE) of 11 nM and an IC50 (CDK9/CycT1) of 2 nM.
`COc1cc(F)ccc1-c1cc(Nc2cc(CS(C)(=N)=O)ccn2)ncc1F` (single isomer, unassigned; (+)) [Example 2, (+)-5-Fluoro-4-(4-fluoro-2-methoxyphenyl)-N-{4-[(S-methylsulfonimidoyl)methyl]pyridin-2-yl}pyridin-2-amine] gave an IC50 (CDK2/CycE) of 360 nM.
Compound `COc1cc(F)ccc1-c1cc(Nc2cc(CS(C)(=N)=O)ccn2)ncc1F` (single isomer, unassigned; (-)) [Example 3, (−)-5-Fluoro-4-(4-fluoro-2-methoxyphenyl)-N-{4-[(S-methylsulfonimidoyl)methyl]pyridin-2-yl}pyridin-2-amine] has an IC50 (CDK2/CycE) of 240 nM.
With `COc1cc(F)ccc1-c1cc(Nc2cc(CS(C)(=N)=O)ccn2)ncc1F` (single isomer, unassigned; enantiomer 1) [Example 16, 5-Fluoro-4-(4-fluoro-2-methoxyphenyl)-N-{4-[(S-methylsulfonimidoyl)methyl]pyridin-2-yl}pyridin-2-amine hydrochloride; enantiomer 1] the IC50 (CDK2/CycE) was 430 nM.
`COc1cc(F)ccc1-c1cc(Nc2cc(CS(C)(=N)=O)ccn2)ncc1F.Cl` (single isomer, unassigned; enantiomer 2) [Example 14, 5-Fluoro-4-(4-fluoro-2-methoxyphenyl)-N-{4-[(S-methylsulfonimidoyl)methyl]pyridin-2-yl}pyridin-2-amine hydrochloride; enantiomer 2] was tested, and the IC50 (CDK2/CycE) was 200 nM.
